Measured values as given in patent US4873250A, “Antimicrobial compound and compositions particulary effective against candida albicans” (The University of Mississippi, priority 1988, dated 1989).
Converted amounts (≈) assume the structure as drawn. Each block holds one compound with its values, some of them ahead of it.

Key:
[1] = tested on: Candida albicans 10231; assay: Minimum inhibitory concentration (MIC), twofold serial broth dilution assay, Candida albicans ATCC 10231; type: cell-based; conditions: ATCC10231, 24 and 48 hours at 37°
Protocol: (§1) The method used to determine the minimum inhibitory concentration (MIC) of the inventive compound was a twofold serial broth dilution assay in yeast nitrogen broth. In addition to Candida albicans B311, the MIC values for onychine were also determined for two additional strains of Candida albicans: ATCC 10231 and a clinical isolate, designated WH. Also tested were Mycobacterium smegmatis 607, Bacillus subtilis, 6633, Cryptococcus neoformans 32264, Aspergillus flavus 9170, Aspergillus fumigatus 26934, and Trichophyton mentagrophytes 9972. The inventive compound was initally tested using a concentration of 100 μg/ml in the first tube. The compound was added to sterile Sabourauddextrose broth as a solution in DMSO. The inoculum for the MIC determination was prepared as described for qualitative evaluation. Using a calibrated sterile wire loop, 10μl of the 10^6 CFU/ml suspension of Candida albicans was used as inoculum for each tube. The MIC value was taken as the lowest concentration of compound that inhibited the growth of the test organisms after 24 and 48 hours of incubation at 37°. The antifungal agents amphotericin-B and ketoconazole were included as standards in each screen. The results of the MIC testing for various pathogenic agents is set out in Table I.

[2] = tested on: Candida albicans; assay: In vivo disseminated Candida albicans infection in mice, CFU recovered from the kidneys; parameters: species or system outbred mice; conditions: for % Reduction: kidney CFU versus vehicle control; for CFU/g × 10^6 (range): kidney
Protocol: In the in vivo testing of the invention onychine, outbred mice were used. A disseminated infection of Candida albicans in the test animals was achieved by intravenous injection of 10^6 CFU of the pathogen. The organism is rapidly cleared from the blood and most tissues, except the kidney which is the primary target organ for the disseminated infection in mice. It is known than an inoculum of 10^6 CFU will produce a disseminated infection in outbred mice within […]. Onychine was administered to infected mice by intraperitoneal injection 7 hrs post-inoculation. The vehicle used for administering the compound of the invention was a mixture consisting of 50% USP water, 40% propylene glycol and 10% absolute ethonol.

[3] = tested on: Candida albicans B311; assay: Minimum inhibitory concentration (MIC), twofold serial broth dilution assay, Candida albicans B311; type: cell-based; conditions: yeast nitrogen broth, 24 and 48 hours at 37°
Protocol: as §1

[4] = tested on: Candida albicans; assay: Anticandidal activity, agar-well diffusion assay (zone of inhibition); type: cell-based; conditions: three test strains of Candida albicans; pure compounds at 1 mg/ml; 37° for 24 hours
Protocol: In vitro evaluation of the anticandidal activity of the inventive compound and compositions was carried out using the agar-well diffusion assay as follows:
Candida albicans NIH B311 used to induce experimental disseminated candidiasis was used for the initial qualitative evaluation of anticandidal activity. The organism was grown in Sabouraud-dextrose broth (SDB) for 14 hours at 37°, at which time the cells were harvested by centrifugation (4°, 2000 rpm, 3 min). After centrifugation, the cells were washed and suspended in sterile 0.9% saline to give a final concentration of 10^6 colony forming units (CFU) per ml (adjusted using a hemocytometer). Culture plates (15×100 mm) for the qualitative assay were prepared from 25 ml of Sabouraud-dextrose agar. Using sterile cotton swabs, the plates were streaked with the suspension (10^6 CFU/ml) of Candida albicans B311. Cylindrical plugs were removed from the agar plates by means of a sterile cork borer to produce wells with a diameter of approximately 11 mm. To the well was added 100 μl of solution or suspension of an extract, fraction, or pure compound. Crude extracts and fractions were tested at a concentration of 20 mg/ml, whereas pure compounds were tested at 1 mg/ml. […] Anticandidal activity was recorded as the width (in mm) of the zone of inhibition following incubation of the plates at 37° for 24 hours. […]

[5] = tested on: Candida albicans WH; assay: Minimum inhibitory concentration (MIC), twofold serial broth dilution assay, Candida albicans WH (clinical isolate); type: cell-based; conditions: 24 and 48 hours at 37°
Protocol: as §1

[6] = under varying conditions; cited from earlier work
[7] = tested on: Candida albicans; conditions: reported in Journal of Natural Products, Vol. 50, No. 5, pp. 961-964, 1987; cited from earlier work

- MIC [1]: 1.56 µg/mL (≈ 7.99 µM)
- MIC [3]: 3.12 µg/mL (≈ 16 µM)
- MIC [5]: 25 µg/mL (≈ 128 µM)
SMILES: Cc1ccnc2c1C(=O)c1ccccc1-2 [Onychine, 1-methyl-4-azafluoren-9-one]
- number of CFU of Candida albicans recovered from the kidneys versus vehicle treated control mice ([2]; 0.1 mg/kg intraperitoneal 7 hrs post-inoculation): significantly lower
- % Reduction ([2]; 0.1 mg/kg intraperitoneal, n=8, P 0.047): 95.5%
- % Reduction ([2]; 0.5 mg/kg intraperitoneal, n=7, P 0.082): 86.7%
- CFU/g × 10^6 (range) ([2]; 0.1 mg/kg intraperitoneal 7 hrs post-inoculation, n=8, range 0.05-0.3, P 0.047): 0.17 CFU/g × 10^6
- CFU/g × 10^6 (range) ([2]; 0.5 mg/kg intraperitoneal 7 hrs post-inoculation, n=7, range 0.11-1.05, P 0.082): 0.50 CFU/g × 10^6
- zone of inhibition [4]: remarkable zone of inhibition

SMILES: CC1C=CC=CC=CC=CC=CC=CC=CC(OC2OC(C)C(O)C(N)C2O)CC2OC(O)(CC(O)CC(O)C(O)CCC(O)CC(O)CC(=O)OC(C)C(C)C1O)CC(O)C2C(=O)O (centres unmarked) [amphotericin-B]
- side effects in humans [6]: fever, anorexia, nausea and vomiting, diarrhea, muscle and joint pain, phlebitis and thiophlebitis, anemia, abnormal renal function, anuria, cardiovascular distress, hypertension and hypotension

SMILES: c1ccc2c(c1)-c1nccc3ccnc-2c13 [eupolauridine]
- anticandidal properties [7]: possibly remarkable anticandidal properties
